Test system: rat mixed glial culture
Assay: Activity of promoting neuronal neogenesis in rat mixed glial culture
Assay type: cell-based
Details: compound 1 μM + rhIGF-1 100 ng/ml, three days; anti-class III beta-tubulin, absorbance at 450 nm; control (rhIGF-1 only) = 100%
Protocol: From a three-day old SD rat, hippocampus and cerebral cortex were removed. By using a kit of dispersion liquid for neuronal cells (MB-X9901, manufactured by SUMITOMO BAKELITE CO., LTD.), cell suspension was prepared and then seeded on a 96-well plate coated with collagen Type I (4860-010, manufactured by Asahi Techno Glass Co., Ltd.) to 10^5 cells/well. Under the condition of 37° C. and 5% CO2, the cells were cultured for four days in a growth medium (D-MEM/F12 with 10% FBS, comprising PS).
After culturing, the medium was exchanged with a medium for differentiation (D-MEM/F12, comprising PS), added with rhIGF-1 (R&D Systems, 291-G1-250, final concentration of 100 ng/ml) and the compound to 1 μM, followed by further culture for three days. […] By using the plate reader (Labsystems Multiskan BICHROMATIC), absorbance at 450 nm was measured.
The absorbance for the case in which no compound is added (i.e., control, rhIGF-1 only) was 100%, and the increase ratio of the absorbance for the compound addition (i.e., compound+rhIGF-1) compared to the control was obtained as % control. Activity of the each compound for promoting neuronal differentiation that is measured according to the above method is summarized in Table 9 and Table 10.

Question: How did the “Increase Ratio of the Absorbance (% control)” value turn out when `COc1ccc(N2CCN(c3c(C)c(C)c4c(c3C)CC(C)(CO)O4)CC2)cc1` (single isomer, unassigned; (+)) [Example 144, (+)-{5-[4-(4-methoxyphenyl)piperazin-1-yl]-2,4,6,7-tetramethyl-2,3-dihydro-1-benzofuran-2-yl}methanol] was run?
Answer: Its value is >500 % control.
